The term IC50 denotes the midpoint of a concentration-inhibition curve.

These results are taken from ChEMBL document CHEMBL4219236, “Synthesis of some novel dimethine, bis-dimethine cyanine dyes and octacosamethine cyanine dyes endowed with promising biological potency against (HepG2), (Hela), (MCF-7), (MIA), (SN12C) and (H358) cell lines” (Bioorg Med Chem Lett, 2018).

SMILES strings stand for the structures. Converted amounts (≈) assume the structure as drawn.

Type in all cases: functional, cell-based
One assay deals with SN12C. The assay can be described thus: Cytotoxicity against human SN12C cells assessed as decrease in cell viability after 96 hrs.
A further assay relates to MCF7. Kind of assay: Cytotoxicity against human MCF7 cells assessed as decrease in cell viability after 96 hrs. The settings on record: MCF7, 96 h.
In the next assay the test system is MIA PaCa-2. The assay can be described thus: Cytotoxicity against human MIAPaCa2 cells assessed as decrease in cell viability after 96 hrs. The conditions noted are these: MIA PaCa-2, 96 h.
The test system of another assay is HepG2. Kind of assay: Cytotoxicity against human HepG2 cells assessed as decrease in cell viability after 96 hrs. The settings on record: HepG2, 96 h.
Another assay concerns NCI-H358. Kind of assay: Cytotoxicity against human NCI-H358 cells assessed as decrease in cell viability after 96 hrs. The settings on record: NCI-H358, 96 h.
The test system of another assay is HeLa. The assay can be described thus: Cytotoxicity against human HeLa cells assessed as decrease in cell viability after 96 hrs.

In the case of `C1=Cc2cc3cc(/C=C(\c4ccccc4)c4cccc[n+]4C4CCC([n+]5ccccc5Cc5ccccc5)CC4)c(cc4nc(cc5ccc(cc1n2)[nH]5)C=C4)[nH]3.[Br-].[Br-]` (configuration not stated), the 50% inhibitory concentration (IC50) in the assay on SN12C is 38.9 µg/mL; with MCF7 it was 45.9 µg/mL; with MIA PaCa-2 it was 45.9 µg/mL; in the assay with HepG2, 48 µg/mL; in the assay with NCI-H358, 38.1 µg/mL; with HeLa, 40.3 µg/mL.
On to `O=S(=O)([O-])c1ccccc1/C=C(\c1ccccc1)c1cccc[n+]1C1CCC([n+]2ccccc2/C(=C/c2ccccc2S(=O)(=O)[O-])c2ccccc2)CC1.[Br-].[Br-].[Na+].[Na+]` (configuration not stated), for which the IC50 with SN12C was 26.3 µg/mL; in the assay with MCF7 it was 22.5 µg/mL; in the assay with MIA PaCa-2, 33.5 µg/mL; with HepG2, 25.4 µg/mL; in the assay with NCI-H358, 26.3 µg/mL; in the assay with HeLa it was 32.3 µg/mL.
In the case of `C(=C(/c1ccccc1)c1cccc[n+]1C1CCC([n+]2ccccc2Cc2ccccc2)CC1)/c1cc2c3c(c1)CCCN3CCC2.[Br-].[Br-]` (configuration not stated), the half-inhibitory concentration (IC50) in the assay on SN12C stood at 86.5 µg/mL; in the assay with MCF7, 96.9 µg/mL; in the assay on MIA PaCa-2 it was 101 µg/mL; in the assay with HepG2 it was 62.5 µg/mL; in the assay with NCI-H358, 36.5 µg/mL; with HeLa it was 101 µg/mL.
As to `O=S(=O)([O-])c1ccccc1/C=C(\c1ccccc1)c1cccc[n+]1C1CCC([n+]2ccccc2Cc2ccccc2)CC1.[Br-].[Br-].[Na+]` (configuration not stated), the IC50 in the assay on SN12C amounted to 25 µg/mL; in the assay on MCF7 it was 29 µg/mL; in the assay with MIA PaCa-2, 50 µg/mL; in the assay on HepG2 it was 32.2 µg/mL; in the assay on NCI-H358, 30 µg/mL; in the assay on HeLa it was 39.6 µg/mL.
With `O=CC1=Cc2cc3cc(/C=C(\c4ccccc4)c4cccc[n+]4C4CCC([n+]5ccccc5/C(=C/c5cc6cc7nc(cc8ccc(cc9nc(cc5[nH]6)C=C9)[nH]8)C(C=O)=C7)c5ccccc5)CC4)c(cc4nc(cc5ccc(cc1n2)[nH]5)C=C4)[nH]3.[Br-].[Br-]` (configuration not stated), the IC50 in the assay with SN12C stood at 20 µg/mL; in the assay with MCF7, 16 µg/mL; in the assay on MIA PaCa-2 it was 20 µg/mL; in the assay with HepG2, 21 µg/mL; in the assay with NCI-H358, 15.2 µg/mL; in the assay with HeLa, 21 µg/mL.
With `C(=C(/c1ccccc1)c1cccc[n+]1C1CCC([n+]2ccccc2/C(=C/c2cc3c4c(c2)CCCN4CCC3)c2ccccc2)CC1)/c1cc2c3c(c1)CCCN3CCC2.[Br-].[Br-]` (configuration not stated), the half-maximal inhibitory concentration (IC50) in the assay on SN12C came to 52.6 µg/mL; in the assay on MCF7 it was 35.6 µg/mL; with MIA PaCa-2 it was 55.6 µg/mL; with HepG2, 53.1 µg/mL; in the assay with NCI-H358 it was 75.6 µg/mL; with HeLa, 49.8 µg/mL.
Regarding `C1=Cc2cc3cc(/C=C(\c4ccccc4)c4cccc[n+]4C4CCC([n+]5ccccc5/C(=C/c5cc6cc7nc(cc8ccc(cc9nc(cc5[nH]6)C=C9)[nH]8)C=C7)c5ccccc5)CC4)c(cc4nc(cc5ccc(cc1n2)[nH]5)C=C4)[nH]3.[Br-].[Br-]` (configuration not stated), the half-maximal inhibitory concentration (IC50) with SN12C was 31.1 µg/mL; in the assay with MCF7, 45.6 µg/mL; in the assay on MIA PaCa-2 it was 45.6 µg/mL; in the assay with HepG2 it was 33 µg/mL; in the assay on NCI-H358, 49.6 µg/mL; with HeLa it was 35.3 µg/mL.
As to `O=CC1=Cc2cc3cc(/C=C(\c4ccccc4)c4cccc[n+]4C4CCC([n+]5ccccc5Cc5ccccc5)CC4)c(cc4nc(cc5ccc(cc1n2)[nH]5)C=C4)[nH]3.[Br-].[Br-]` (configuration not stated), the IC50 in the assay with SN12C was found to be 20.3 µg/mL; in the assay on MCF7 it was 19.1 µg/mL; with MIA PaCa-2, 29.3 µg/mL; in the assay on HepG2, 25.2 µg/mL; in the assay with NCI-H358, 23.3 µg/mL; with HeLa, 23.7 µg/mL.
With `O=c1[nH]cc(F)c(=O)[nH]1` [FLUOROURACIL], the IC50 worked out at 6.5 µg/mL (≈ 50 µM) in the assay with SN12C, 3.5 µg/mL (≈ 26.9 µM) with MIA PaCa-2, 6.9 µg/mL (≈ 53 µM) with NCI-H358 and 3.2 µg/mL (≈ 24.6 µM) in the assay with HeLa.
